Test results: publication PMC9684079, “Pharmacological targeting of glutamatergic neurons within the brainstem for weight reduction” (Nature Metabolism, 2022)

How the values were obtained:
[1] = target: T1, Growth Hormone Secretogogue (GHS, Ghrelin) (Homo sapiens, UniProt Q92847); assay: biochemical; design: Cerep/Eurofins selectivity panel, receptors, channels and transporters, per cent inhibition at 10 uM; details: read-out: % Inhibition
T1 construct: gene GHSR

[2] = target: T2, Protein Serine/Threonine Kinase, IKK-1 (Homo sapiens, UniProt O15111); assay: biochemical; design: Cerep/Eurofins selectivity panel, enzymes, per cent inhibition at 10 uM; details: read-out: % Inhibition
T2 construct: gene CHUK

[3] = target: T3, Peptidase, Matrix metalloprotease, neutral endopeptidase (Homo sapiens, UniProt P08473); assay: biochemical; design: Cerep/Eurofins selectivity panel, enzymes, per cent inhibition at 10 uM; details: read-out: % Inhibition
T3 construct: gene MME

Hcrtr2 = target: T4, Hcrtr2 (Homo sapiens, UniProt O43614); assay: radioligand displacement of [3H]EMPA (weak; functional IC50 […]); assay type: binding
T4 construct: membranes from CHO-K1 cells stably expressing HCRTR2
T4 sequence (O43614 whole entry): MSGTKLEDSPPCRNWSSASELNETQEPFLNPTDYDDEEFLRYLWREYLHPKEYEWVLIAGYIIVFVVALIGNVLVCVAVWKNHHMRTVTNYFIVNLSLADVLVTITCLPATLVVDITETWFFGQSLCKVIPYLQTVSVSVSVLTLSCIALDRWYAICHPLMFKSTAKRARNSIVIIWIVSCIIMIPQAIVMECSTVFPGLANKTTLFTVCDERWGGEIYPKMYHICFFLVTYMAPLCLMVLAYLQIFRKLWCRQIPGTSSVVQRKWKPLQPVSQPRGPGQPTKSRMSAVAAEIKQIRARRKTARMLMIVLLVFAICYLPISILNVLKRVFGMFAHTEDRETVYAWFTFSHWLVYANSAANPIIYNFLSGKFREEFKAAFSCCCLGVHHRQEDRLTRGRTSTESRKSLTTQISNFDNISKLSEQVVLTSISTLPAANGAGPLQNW

Phospholipase PLA2-I = target: T5, Phospholipase PLA2-I (Sus scrofa, UniProt P00592); assay: biochemical; design: Cerep/Eurofins selectivity panel, enzymes, per cent inhibition at 10 uM; details: read-out: % Inhibition
T5 construct: gene PLA2G1B
T5 sequence (P00592 whole entry): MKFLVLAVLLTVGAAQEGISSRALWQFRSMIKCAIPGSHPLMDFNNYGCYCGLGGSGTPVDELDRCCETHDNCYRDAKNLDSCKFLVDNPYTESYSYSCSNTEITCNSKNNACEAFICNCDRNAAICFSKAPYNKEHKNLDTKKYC

[4] = target: Protein Serine/Threonine Kinase, CDC2/CCNB1 (CDK1/cyclinB) (Homo sapiens, UniProt P06493); assay: biochemical; design: Cerep/Eurofins selectivity panel, enzymes, per cent inhibition at 10 uM; details: read-out: % Inhibition
Androgen (Testosterone) = target: T6, Androgen (Testosterone) (Homo sapiens, UniProt P10275); assay: biochemical; design: Cerep/Eurofins selectivity panel, receptors, channels and transporters, per cent inhibition at 10 uM; details: read-out: % Inhibition
T6 construct: gene AR
T6 sequence (P10275 whole entry): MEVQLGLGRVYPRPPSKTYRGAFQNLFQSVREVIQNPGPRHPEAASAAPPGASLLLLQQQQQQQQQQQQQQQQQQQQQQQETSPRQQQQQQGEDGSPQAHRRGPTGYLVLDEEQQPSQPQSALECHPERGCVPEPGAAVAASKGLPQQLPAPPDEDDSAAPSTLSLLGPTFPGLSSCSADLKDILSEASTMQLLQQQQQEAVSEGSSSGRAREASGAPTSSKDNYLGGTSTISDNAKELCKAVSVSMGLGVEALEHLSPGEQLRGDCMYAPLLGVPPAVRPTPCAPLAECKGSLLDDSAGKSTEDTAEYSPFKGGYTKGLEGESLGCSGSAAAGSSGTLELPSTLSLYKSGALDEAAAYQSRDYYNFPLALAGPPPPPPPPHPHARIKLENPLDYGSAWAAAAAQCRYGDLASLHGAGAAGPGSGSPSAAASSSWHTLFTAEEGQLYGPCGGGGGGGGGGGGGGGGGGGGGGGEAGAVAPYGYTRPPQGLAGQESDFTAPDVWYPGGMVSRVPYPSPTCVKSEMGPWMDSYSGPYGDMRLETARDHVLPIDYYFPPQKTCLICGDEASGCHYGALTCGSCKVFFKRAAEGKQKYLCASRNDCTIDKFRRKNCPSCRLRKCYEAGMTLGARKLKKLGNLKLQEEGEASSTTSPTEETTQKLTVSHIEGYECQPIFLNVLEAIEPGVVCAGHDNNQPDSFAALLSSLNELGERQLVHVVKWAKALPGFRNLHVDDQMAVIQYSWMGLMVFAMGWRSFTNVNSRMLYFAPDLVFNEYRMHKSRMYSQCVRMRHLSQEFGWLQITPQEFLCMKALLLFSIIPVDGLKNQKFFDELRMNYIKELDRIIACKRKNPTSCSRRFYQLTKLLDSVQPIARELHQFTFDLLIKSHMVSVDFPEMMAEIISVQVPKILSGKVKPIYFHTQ

[5] = target: Protein Tyrosine Kinase, LYN B (Homo sapiens, UniProt P07948); assay: biochemical; design: Cerep/Eurofins selectivity panel, enzymes, per cent inhibition at 10 uM; details: read-out: % Inhibition
Protein Tyrosine Kinase, LYN B, sequence (P07948 whole entry): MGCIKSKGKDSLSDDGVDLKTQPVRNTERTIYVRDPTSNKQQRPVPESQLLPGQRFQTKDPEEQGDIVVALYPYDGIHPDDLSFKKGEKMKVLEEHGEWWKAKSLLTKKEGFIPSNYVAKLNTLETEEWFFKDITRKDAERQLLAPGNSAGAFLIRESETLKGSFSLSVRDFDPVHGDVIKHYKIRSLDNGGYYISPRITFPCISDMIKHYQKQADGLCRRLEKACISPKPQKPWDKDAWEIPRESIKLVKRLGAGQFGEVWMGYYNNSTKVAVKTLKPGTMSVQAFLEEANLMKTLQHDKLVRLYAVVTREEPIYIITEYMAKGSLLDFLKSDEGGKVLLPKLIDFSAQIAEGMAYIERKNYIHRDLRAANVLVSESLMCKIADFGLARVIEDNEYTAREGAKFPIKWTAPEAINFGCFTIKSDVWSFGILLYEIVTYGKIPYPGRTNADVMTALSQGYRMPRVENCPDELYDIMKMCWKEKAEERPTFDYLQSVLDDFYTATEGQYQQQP

[6] = target: T7, Nitric Oxide Synthase, inducible (iNOS) (Mus musculus, UniProt P29477); assay: biochemical; design: Cerep/Eurofins selectivity panel, enzymes, per cent inhibition at 10 uM; details: read-out: % Inhibition
T7 construct: gene Nos2
T7 sequence (P29477 whole entry): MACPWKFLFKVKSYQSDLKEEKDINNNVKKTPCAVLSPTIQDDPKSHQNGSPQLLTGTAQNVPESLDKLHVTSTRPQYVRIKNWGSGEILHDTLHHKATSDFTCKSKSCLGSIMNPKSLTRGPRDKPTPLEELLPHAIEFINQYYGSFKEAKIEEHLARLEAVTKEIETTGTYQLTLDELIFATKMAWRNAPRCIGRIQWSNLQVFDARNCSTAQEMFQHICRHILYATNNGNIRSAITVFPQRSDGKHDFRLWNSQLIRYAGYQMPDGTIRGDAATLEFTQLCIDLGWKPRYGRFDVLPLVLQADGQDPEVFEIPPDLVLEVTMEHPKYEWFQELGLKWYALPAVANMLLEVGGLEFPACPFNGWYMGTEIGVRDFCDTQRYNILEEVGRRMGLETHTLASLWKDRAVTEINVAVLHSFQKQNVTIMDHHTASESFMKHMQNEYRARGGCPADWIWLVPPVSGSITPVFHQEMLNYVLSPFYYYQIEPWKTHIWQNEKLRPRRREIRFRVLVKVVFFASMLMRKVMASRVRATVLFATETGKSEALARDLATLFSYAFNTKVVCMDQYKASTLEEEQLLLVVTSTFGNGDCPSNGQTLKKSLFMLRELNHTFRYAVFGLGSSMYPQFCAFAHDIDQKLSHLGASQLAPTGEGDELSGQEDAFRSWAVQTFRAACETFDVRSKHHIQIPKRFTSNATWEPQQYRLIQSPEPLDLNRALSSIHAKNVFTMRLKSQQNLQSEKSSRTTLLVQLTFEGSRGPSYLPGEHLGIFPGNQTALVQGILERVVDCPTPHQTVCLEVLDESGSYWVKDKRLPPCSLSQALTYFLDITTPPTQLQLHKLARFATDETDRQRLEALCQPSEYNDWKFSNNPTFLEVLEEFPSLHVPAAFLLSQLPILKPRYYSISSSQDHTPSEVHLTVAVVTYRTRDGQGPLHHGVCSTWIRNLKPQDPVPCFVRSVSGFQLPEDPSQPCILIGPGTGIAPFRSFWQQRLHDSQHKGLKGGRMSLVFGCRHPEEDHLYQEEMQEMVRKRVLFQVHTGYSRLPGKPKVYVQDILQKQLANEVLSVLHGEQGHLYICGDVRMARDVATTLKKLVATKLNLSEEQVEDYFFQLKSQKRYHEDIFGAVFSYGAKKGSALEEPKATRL

[7] = target: T8, Nitric Oxide Synthase, neuronal (nNOS) (Rattus norvegicus, UniProt P29476); assay: biochemical; design: Cerep/Eurofins selectivity panel, enzymes, per cent inhibition at 10 uM; details: read-out: % Inhibition
T8 construct: gene Nos1
T8 sequence (P29476 whole entry): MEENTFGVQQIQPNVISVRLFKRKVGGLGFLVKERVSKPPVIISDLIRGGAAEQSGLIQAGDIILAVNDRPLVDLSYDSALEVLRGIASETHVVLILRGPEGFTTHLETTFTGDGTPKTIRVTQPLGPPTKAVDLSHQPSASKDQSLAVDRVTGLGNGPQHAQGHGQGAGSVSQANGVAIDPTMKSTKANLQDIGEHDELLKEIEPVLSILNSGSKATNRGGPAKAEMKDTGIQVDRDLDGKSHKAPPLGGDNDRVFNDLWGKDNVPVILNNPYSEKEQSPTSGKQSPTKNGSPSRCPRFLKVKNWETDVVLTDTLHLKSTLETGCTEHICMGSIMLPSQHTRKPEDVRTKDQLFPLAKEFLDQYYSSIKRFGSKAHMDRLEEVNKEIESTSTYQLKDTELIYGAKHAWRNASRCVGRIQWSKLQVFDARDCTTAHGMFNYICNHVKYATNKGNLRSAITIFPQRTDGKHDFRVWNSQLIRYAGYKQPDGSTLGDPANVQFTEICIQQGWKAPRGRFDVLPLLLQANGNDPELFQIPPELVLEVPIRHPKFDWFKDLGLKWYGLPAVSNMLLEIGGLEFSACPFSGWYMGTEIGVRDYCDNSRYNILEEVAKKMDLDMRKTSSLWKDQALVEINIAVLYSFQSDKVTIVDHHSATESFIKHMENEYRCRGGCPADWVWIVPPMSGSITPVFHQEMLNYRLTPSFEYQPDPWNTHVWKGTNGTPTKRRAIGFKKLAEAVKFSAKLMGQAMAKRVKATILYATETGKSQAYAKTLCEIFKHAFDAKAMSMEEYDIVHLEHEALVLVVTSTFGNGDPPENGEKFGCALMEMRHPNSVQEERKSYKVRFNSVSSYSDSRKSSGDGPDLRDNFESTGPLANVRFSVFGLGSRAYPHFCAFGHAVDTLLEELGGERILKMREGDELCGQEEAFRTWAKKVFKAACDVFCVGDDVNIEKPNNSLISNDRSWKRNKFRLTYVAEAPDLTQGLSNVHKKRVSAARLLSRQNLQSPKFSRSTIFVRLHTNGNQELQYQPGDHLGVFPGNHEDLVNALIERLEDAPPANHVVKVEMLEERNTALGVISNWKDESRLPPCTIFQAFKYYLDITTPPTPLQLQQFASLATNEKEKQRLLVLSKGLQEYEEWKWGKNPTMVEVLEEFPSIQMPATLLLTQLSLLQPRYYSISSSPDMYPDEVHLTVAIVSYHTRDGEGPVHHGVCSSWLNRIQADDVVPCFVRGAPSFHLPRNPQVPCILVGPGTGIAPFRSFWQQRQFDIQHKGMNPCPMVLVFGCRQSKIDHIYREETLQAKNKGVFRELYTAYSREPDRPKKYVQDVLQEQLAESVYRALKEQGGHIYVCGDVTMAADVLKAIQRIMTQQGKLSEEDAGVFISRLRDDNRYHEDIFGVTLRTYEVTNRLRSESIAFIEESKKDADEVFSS

Xanthine Oxidase = target: T9, Xanthine Oxidase (Bos taurus, UniProt P80457); assay: biochemical; design: Cerep/Eurofins selectivity panel, enzymes, per cent inhibition at 10 uM; details: read-out: % Inhibition
T9 construct: gene XDH

Muscarinic M1 = target: T10, Muscarinic M1 (Homo sapiens, UniProt P11229); assay: biochemical; design: Cerep/Eurofins selectivity panel, receptors, channels and transporters, per cent inhibition at 10 uM; details: read-out: % Inhibition
T10 construct: gene CHRM1

Vasopressin V1b = target: T11, Vasopressin V1b (Homo sapiens, UniProt P47901); assay: biochemical; design: Cerep/Eurofins selectivity panel, receptors, channels and transporters, per cent inhibition at 10 uM; details: read-out: % Inhibition
T11 construct: gene AVPR1B

Dopamine D4.2 = target: T12, Dopamine D4.2 (Homo sapiens, UniProt P21917); assay: biochemical; design: Cerep/Eurofins selectivity panel, receptors, channels and transporters, per cent inhibition at 10 uM; details: read-out: % Inhibition
T12 construct: gene DRD4; D4.2

Histamine H1 = target: T13, Histamine H1 (Homo sapiens, UniProt P35367); assay: biochemical; design: Cerep/Eurofins selectivity panel, receptors, channels and transporters, per cent inhibition at 10 uM; details: read-out: % Inhibition
T13 construct: gene HRH1

GABAB1B = target: T14, GABAB1B (Homo sapiens, UniProt Q9UBS5); assay: biochemical; design: Cerep/Eurofins selectivity panel, receptors, channels and transporters, per cent inhibition at 10 uM; details: read-out: % Inhibition
T14 construct: gene GABBR1; isoform 1B

Opiate δ1 (OP1, DOP) = target: T15, Opiate δ1 (OP1, DOP) (Homo sapiens, UniProt P41143); assay: biochemical; design: Cerep/Eurofins selectivity panel, receptors, channels and transporters, per cent inhibition at 10 uM; details: read-out: % Inhibition
T15 construct: gene OPRD1

GABAB1A = target: T16, GABAB1A (Homo sapiens, UniProt Q9UBS5); assay: biochemical; design: Cerep/Eurofins selectivity panel, receptors, channels and transporters, per cent inhibition at 10 uM; details: read-out: % Inhibition
T16 construct: gene GABBR1; isoform 1A

Estrogen Erα = target: T17, Estrogen Erα (Homo sapiens, UniProt P03372); assay: biochemical; design: Cerep/Eurofins selectivity panel, receptors, channels and transporters, per cent inhibition at 10 uM; details: read-out: % Inhibition
T17 construct: gene ESR1

AdenosineA2B = target: T18, AdenosineA2B (Homo sapiens, UniProt P29275); assay: biochemical; design: Cerep/Eurofins selectivity panel, receptors, channels and transporters, per cent inhibition at 10 uM; details: read-out: % Inhibition
T18 construct: gene ADORA2B

APJ = target: T19, APJ (Homo sapiens, UniProt P35414); assay: biochemical; design: Cerep/Eurofins selectivity panel, receptors, channels and transporters, per cent inhibition at 10 uM; details: read-out: % Inhibition
T19 construct: gene APLNR

Adrenergic β1 = target: T20, Adrenergic β1 (Homo sapiens, UniProt P08588); assay: biochemical; design: Cerep/Eurofins selectivity panel, receptors, channels and transporters, per cent inhibition at 10 uM; details: read-out: % Inhibition
T20 construct: gene ADRB1

Calcium Channel N-type = target: T21, Calcium Channel N-type (Rattus norvegicus, UniProt Q02294); assay: biochemical; design: Cerep/Eurofins selectivity panel, receptors, channels and transporters, per cent inhibition at 10 uM; details: read-out: % Inhibition
T21 construct: gene Cacna1b

Glucocorticoid = target: T22, Glucocorticoid (Homo sapiens, UniProt P04150); assay: biochemical; design: Cerep/Eurofins selectivity panel, receptors, channels and transporters, per cent inhibition at 10 uM; details: read-out: % Inhibition
T22 construct: gene NR3C1

mouse Hcrtr1 = target: T23, mouse Hcrtr1 (Mus musculus, UniProt P58307); assay: FLIPR Ca2+ flux, antagonism of orexin A response; assay type: cell-based
T23 construct: CHO-K1 cells expressing Gα16 and mouse Hcrtr1

T1 sequence (Q92847 whole entry): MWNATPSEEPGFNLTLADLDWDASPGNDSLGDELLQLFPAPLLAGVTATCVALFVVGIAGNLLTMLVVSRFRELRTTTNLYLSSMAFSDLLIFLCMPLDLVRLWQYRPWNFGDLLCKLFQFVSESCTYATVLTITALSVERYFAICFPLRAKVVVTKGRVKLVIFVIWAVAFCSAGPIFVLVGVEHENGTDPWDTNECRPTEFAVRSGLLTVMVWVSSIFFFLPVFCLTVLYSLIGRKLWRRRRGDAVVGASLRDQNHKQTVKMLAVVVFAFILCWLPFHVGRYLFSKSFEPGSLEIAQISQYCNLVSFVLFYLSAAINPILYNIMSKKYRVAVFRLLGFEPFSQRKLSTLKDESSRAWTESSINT

Structure (SMILES): C[C@]1(Nc2cnc(C(F)(F)F)cn2)CCC[C@@H]1NC(=O)c1ncccc1-n1nccn1 [CVN45502]
- inhibition at 10 µM [1]: -5%
- inhibition at 10 µM [2]: -14%
- inhibition at 10 µM [3]: 4%
- Ki (Hcrtr2): 4.66 pKi
- inhibition at 10 µM (Phospholipase PLA2-I): 10%
- inhibition at 10 µM [4]: 14%
- inhibition at 10 µM (Androgen (Testosterone)): -5%
- inhibition at 10 µM [5]: 6%
- inhibition at 10 µM [6]: 5%
- inhibition at 10 µM [7]: 22%
- inhibition at 10 µM (Xanthine Oxidase): 16%
- inhibition at 10 µM (Muscarinic M1): -1%
- inhibition at 10 µM (Vasopressin V1b): -8%
- inhibition at 10 µM (Dopamine D4.2): -9%
- inhibition at 10 µM (Histamine H1): 2%
- inhibition at 10 µM (GABAB1B): -1%
- inhibition at 10 µM (Opiate δ1 (OP1, DOP)): -4%
- inhibition at 10 µM (GABAB1A): -8%
- inhibition at 10 µM (Estrogen Erα): 2%
- inhibition at 10 µM (AdenosineA2B): -7%
- inhibition at 10 µM (APJ): -4%
- inhibition at 10 µM (Adrenergic β1): -14%
- inhibition at 10 µM (Calcium Channel N-type): -1%
- inhibition at 10 µM (Glucocorticoid): 13%
- IC50 (mouse Hcrtr1): 18 nM
